From US10946024B2, “Method for treating cancer” (Epizyme, Inc., priority 2014, dated 2021)

Key:
Assay type in all cases: cell-based, human
SW982 cells = assay: Adherent cell line long-term (14-day) proliferation assay, CellTiter-Glo; conditions: SW982, 14-day long-term proliferation assay
Protocol: (§1) 96-well plating for 7 day assay: For each adherent cell line, plated cells in a volume of 100 μL in 96-well plates, to be treated in triplicate, either in the evening (to treat with compound the following day) or in morning (to treat with compound in the evening), to allow cells to attach to plates before compound treatment.
(§2) 6-well plates to be split for 7-14 day assay: Plated 2 mL of cells at the correct density in each well of the 6-well plate. Calculated the correct density from the 96-well plate growth curve by multiplying the 96-well density by 30. The factor 30 came from growth area of the 6-well plate divided by the growth area of the 96-well plate (9.5 cm^2/0.32 cm^2=29.7, rounded up to 30), which corresponds to 30-fold more surface area in a 6-well vs. a 96-well plate.
(§3) Day 0: Treated with compound or DMSO by removing media and adding back either 100 μL (for 96-well plate) or 2 mL (for 6-well plate) media with the correct dilutions of compound/DMSO. Table 1 includes an example of 96-well plate map. Plates were incubated for 96 hours.
(§4) Read one 96-well plate with CellTiter-Glo® for a Day 0 reading (media change not necessary for this plate).
(§5) Day 4: Read one 96-well plate with CellTiter-Glo® for a Day 4 reading (media change not necessary for this plate before reading). Replaced media with fresh media containing compound on Day 4 in 96-well plates and 6-well plates.
(§6) Day 7: read final 96-well plate with CellTiter-Glo®.
(§7) Counted individual wells of 6-well plates, and replated cells to initial plating density in 96-well plates, as described above.
(§8) Repeated steps for Days 0-7 for Days 7-14 of the proliferation assay.
(§9) Particularly, approximately 12 hours before compound treatment, HS-SY-II or SW982 cells were plated at the density of 24,000 cells/well and 7,500 cells/well, respectively in 6-well plates. On day 0, cells were treated with either DMSO or compound starting at 10 μmol/L and decreasing in fourfold dilutions. On day 7, the cells in 6-well plates were trypsinized, counted by TC10 automated cell counter (Bio-Rad, Richmond, Calif.) and replated at the density of 800 cells/well and 250 cells/well for HS-SY-II and SW982, respectively in 96-well plates in triplicate. The cells were allowed to adhere to the plate overnight, and treated with either DMSO or compound as on Day 0. On days 0, 7, 11, and 14, cell viability was determined by CellTiter-Glo® Luminescent Cell Viability Assay (Promega) with EnVision 2103 Multilabel Reader (Perkin-Elmer, Wellesley, Mass.). Compound/media was changed with new one on Day 4 and 11. The ratios of the measured values on Days 7, 11, and 14 to that of day 7 were used to plot proliferation from day 7 to day 14, and to calculate the IC50 values on Day 14. […]

HS-SY-II cells = assay: as above; conditions: 14-day long-term proliferation assay
Protocol: as §1, §2, §3, §4, §5, §6, §7, §8, §9

[1] = test system: ATF3, EGR1, CDKN2A expression in HS-SY-II cells; assay: Gene expression changes in vitro by RT-PCR, normalized to GAPDH; set-up: key to ATF3 expression change, significance 0 uM vs. / EGR1 expression change, significance 0 uM vs. / CDKN2A expression change, significance 0 uM vs.: *: Asterisks mean significant changes compared to levels of 0 μM-treated groups.; **: Asterisks mean significant changes compared to levels of 0 μM-treated groups.; ***: Asterisks mean significant changes compared to levels of 0 μM-treated groups.; ****: Asterisks mean significant changes compared to levels of 0 μM-treated groups; conditions: for ATF3 expression change, significance 0 uM vs. / CDKN2A expression change, significance 0 uM vs. / EGR1 expression change, significance 0 uM vs.: HS-SY-II
Protocol: (§10) HS-SY-II and SW982 cells were treated with EZH2 inhibitors (Compound A or EPZ-011989) and collected at the indicated time points. Total RNA isolation and cDNA synthesis were performed using the TaqMan Gene Expression Cells-to-CT kit (4399002, Life technologies) according to the manufacturer's protocol. ATF3, EGR1, CDKN2A and GAPDH expression were analyzed by using the TaqMan Gene Expression Assays (Life technologies, 4331182) and the TaqMan Probes (Hs00231069_m1, Hs00152928_m1, Hs00233365_m1, and Hs99999905_m1, respectively).

[2] = test system: ATF3, EGR1 expression in SW982 cells; assay: as above; set-up: key to EGR1 expression change, significance 0 uM vs.: *: Asterisks mean significant changes compared to levels of 0 μM-treated groups.; **: Asterisks mean significant changes compared to levels of 0 μM-treated groups.; ***: Asterisks mean significant changes compared to levels of 0 μM-treated groups.; ****: Asterisks mean significant changes compared to levels of 0 μM-treated groups
Protocol: as §10

SMILES	sensitivity of cell proliferation (SW982 cells)	sensitivity of cell proliferation (HS-SY-II cells)	ATF3 and EGR1 expression ([1]; HS-SY-II in vitro culture)	CDKN2A expression ([1]; HS-SY-II in vitro culture)	ATF3 expression change, significance 0 uM vs. ([1]; 0.1 uM, day 4)	CDKN2A expression change, significance 0 uM vs. ([1]; 0.1 uM, day 4)	EGR1 expression change, significance 0 uM vs. ([1]; 0.1 uM, day 4)	ATF3 expression change, significance 0 uM vs. ([1]; 1 uM, day 2)	CDKN2A expression change, significance 0 uM vs. ([1]; 1 uM, day 2)	ATF3 expression change, significance 0 uM vs. ([1]; 1 uM, day 4)	CDKN2A expression change, significance 0 uM vs. ([1]; 1 uM, day 4)	EGR1 expression change, significance 0 uM vs. ([1]; 1 uM, day 4)	ATF3 expression change, significance 0 uM vs. ([1]; 1 uM, day 7)	CDKN2A expression change, significance 0 uM vs. ([1]; 1 uM, day 7)	EGR1 expression change, significance 0 uM vs. ([1]; 1 uM, day 7)	EGR1 expression change, significance 0 uM vs. ([2]; SW 982, 0.1 uM, day 2)	EGR1 expression change, significance 0 uM vs. ([2]; SW 982, 0.1 uM, day 4)	EGR1 expression change, significance 0 uM vs. ([2]; SW 982, 1 uM, day 7)	ATF3 and EGR1 expression ([2]; SW982 in vitro culture)
CCN(c1cc(-c2ccc(CN3CCOCC3)cc2)cc(C(=O)NCc2c(C)cc(C)[nH]c2=O)c1C)[C@H]1CC[C@H](N(C)C)CC1 [Compound E]	did not	high sensitivity																	
CCN(c1cc(C#CCN2CCOCC2)cc(C(=O)NCc2c(C)cc(C)[nH]c2=O)c1C)C1CCC(N(C)CCOC)CC1 (stereo not shown) [EPZ-011989]			upregulated	Dose- and time-dependent CDKN2A upregulation	**	****	**	*	***	*	****	**	**	****	**	*	**	*	not in SW982
